Results taken from US20150051269A1, “Drug Delivery Conjugate Capable of Controlled Release, and Use Thereof” (POSTECH ACADEMY-INDUSTRY FOUNDATION, priority 2012, published 2015).

Columns and labels:
[1] = Size of drug delivery conjugates in aqueous solution (Zetasizer Nano S); format: physicochemical; details: diameter in aqueous solution
Protocol: (§1) To measure the sizes and surface charges of the drug delivery conjugates prepared by the method of Example 1, the surface charges and sizes of the drug delivery conjugates in an aqueous solution were measured using a surface charge measurement system (Zetasizer Nano Z) and a size measurement system (Zetasizer Nano S).

[2] = Surface charge in aqueous solution (Zetasizer Nano Z); format: physicochemical
Protocol: as §1

CC(=O)O[C@H]1C(=O)[C@@]2(C)[C@H]([C@H](OC(=O)c3ccccc3)[C@]3(O)C[C@H](OC(=O)[C@H](O)[C@@H](NC(=O)c4ccccc4)c4ccccc4)C(C)=C1C3(C)C)[C@]1(OC(C)=O)CO[C@@H]1C[C@@H]2O [PTX, paclitaxel]
Size (d, nm) [1]: 806.4 ± 235.9 nm
Zeta potential (mV) [2]: −39.2 ± 1.50 mV
